Patent publication US8933113B2 (Merck Sharp & Dohme Corp., priority 2011, dated 2015)

target: T1, full-length human Mineralocorticoid Receptor (MR) (Homo sapiens, UniProt P08235); assay: human MR NH Pro assay (PathHunter Protein:Protein interaction assay), MR antagonist activity; assay type: cell-based; conditions: PathHunter CHO-K1 cells overexpressing human MR; aldosterone about 0.3 nM; 6 hours at 37° C.; luminescence; read-out: Primary Assay IP rating (IP = inflection point for a given dose-response titration curve)
T1 construct: host or cells: PathHunter CHO-K1 cells
T1 sequence (P08235 1-984): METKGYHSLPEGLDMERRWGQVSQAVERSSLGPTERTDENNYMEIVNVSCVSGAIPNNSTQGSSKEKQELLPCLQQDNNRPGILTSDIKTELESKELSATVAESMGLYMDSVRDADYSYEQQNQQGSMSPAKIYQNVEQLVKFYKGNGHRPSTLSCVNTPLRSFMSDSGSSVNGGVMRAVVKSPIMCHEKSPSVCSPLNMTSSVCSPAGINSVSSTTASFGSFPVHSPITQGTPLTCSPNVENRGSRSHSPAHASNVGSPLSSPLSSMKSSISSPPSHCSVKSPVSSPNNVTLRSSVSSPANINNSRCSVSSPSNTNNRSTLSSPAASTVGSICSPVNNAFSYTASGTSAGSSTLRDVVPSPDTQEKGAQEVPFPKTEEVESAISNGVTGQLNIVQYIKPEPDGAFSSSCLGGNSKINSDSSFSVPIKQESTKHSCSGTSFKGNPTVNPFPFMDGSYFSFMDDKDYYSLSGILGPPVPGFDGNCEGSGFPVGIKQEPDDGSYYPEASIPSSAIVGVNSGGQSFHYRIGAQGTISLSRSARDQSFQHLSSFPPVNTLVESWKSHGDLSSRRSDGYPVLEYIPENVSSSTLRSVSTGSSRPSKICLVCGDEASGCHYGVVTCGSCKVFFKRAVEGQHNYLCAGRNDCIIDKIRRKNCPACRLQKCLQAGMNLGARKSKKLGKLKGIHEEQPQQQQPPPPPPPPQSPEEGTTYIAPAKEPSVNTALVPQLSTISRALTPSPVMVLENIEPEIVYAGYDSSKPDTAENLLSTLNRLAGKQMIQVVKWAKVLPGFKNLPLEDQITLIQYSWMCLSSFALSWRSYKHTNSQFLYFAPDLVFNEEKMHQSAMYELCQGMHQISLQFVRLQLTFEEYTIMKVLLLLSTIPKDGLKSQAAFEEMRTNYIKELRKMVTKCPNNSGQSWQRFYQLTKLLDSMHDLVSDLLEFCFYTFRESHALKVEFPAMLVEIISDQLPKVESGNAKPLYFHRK
Outline: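 PathHunter enzyme-complementation assay in cells of full-length human MR recruitment of a coactivator peptide, run in antagonist mode against aldosterone at about 0.3 to 1.0 nM final. Compounds are in a 10-point, 1:3 series from a 4.4 mM top. Incubation is 6 h at 37° C, then detection reagent for 1 h at RT, with a luminescence read-out.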

SMILES	IC50
CCC(C(=O)NCC(=O)OC)(c1ccc(Cl)cc1)n1ccc2c(NS(C)(=O)=O)cccc21 (stereo not drawn) [Compound 52, methyl N-[2-(4-chlorophenyl)-2-{4-[(methylsulfonyl)amino]-1H-indol-1-yl}butanoyl]glycinate]	100 to 500 nM
CCC(C(C)=O)(c1ccc(C(F)(F)F)cc1)n1ncc2c(NS(C)(=O)=O)cccc21 (single isomer, unassigned) [Compound 104, N-(1-(2-oxo-3-(4-(trifluoromethyl)phenyl)pentan-3-yl)-1H-indazol-4-yl)methanesulfonamide]	100 to 500 nM
CCC(c1ccc(Cl)cc1Cl)(C(C)O)n1ccc2c(NS(C)(=O)=O)cccc21 (stereo not drawn) [Compound 110, N-(1-(3-(2,4-dichlorophenyl)-2-hydroxypentan-3-yl)-1H-indol-4-yl)methanesulfonamide]	< 100 nM
CCC(CCCF)(c1ccc(Cl)cc1)n1ccc2c(NS(C)(=O)=O)cccc21 (stereo not drawn) [Compound 170, N-(1-(3-(4-chlorophenyl)-6-fluorohexan-3-yl)-1H-indol-4-yl)methanesulfonamide]	< 100 nM
CCC(/C=C/C#N)(c1ccc(Cl)cc1)n1ccc2c(NS(C)(=O)=O)cccc21 (stereo not drawn) [Compound 127, (E)-N-(1-(3-(4-chlorophenyl)-1-cyanopent-1-en-3-yl)-1H-indol-4-yl)methanesulfonamide]	< 100 nM
CCC(CC#N)(c1ccc(Cl)cc1)n1ccc2c(NS(C)(=O)=O)cccc21 (single isomer, unassigned) [Compound 121, N-(1-(2-(4-chlorophenyl)-1-cyanobutan-2-yl)-1H-indol-4-yl)methanesulfonamide]	< 100 nM
CCC(/C(C)=C/C#N)(c1ccc(Cl)cc1)n1ccc2c(NS(C)(=O)=O)cccc21 (stereo not drawn) [Compound 132, N-(1-(3-(4-Chlorophenyl)-1-cyano-2-methylpent-1-en-3-yl)-1H-indol-4-yl)methanesulfonamide]	< 100 nM
CCc1noc(C(CC)(c2ccc(Cl)cc2)n2ccc3c(NS(C)(=O)=O)cccc32)n1 (single isomer, unassigned) [Compound 151, N-(1-(1-(4-chlorophenyl)-1-(3-ethyl-1,2,4-oxadiazol-5-yl)propyl)-1H-indol-4-yl)methanesulfonamide]	< 100 nM
CCC(CCOC)(c1ccc(Cl)cc1)n1ccc2c(NS(C)(=O)=O)cccc21 (stereo not drawn) [Compound 165, N-(1-(3-(4-Chlorophenyl)-1-methoxypentan-3-yl)-1H-indol-4-yl)methanesulfonamide]	< 100 nM
CCC(CCC#N)(c1ccc(Cl)cc1)n1ccc2c(NS(C)(=O)=O)cccc21 (single isomer, unassigned) [Compound 140, N-(1-(3-(4-chlorophenyl)-1-cyanopentan-3-yl)-1H-indol-4-yl)methanesulfonamide]	< 100 nM
CCC(c1ccc(Cl)cc1)(C(C)O)n1ncc2c(NS(C)(=O)=O)cccc21 (single isomer, unassigned) [Compound 106]	< 100 nM
CCC(CC)(c1ccc(Cl)cc1)n1ccc2c(NS(C)(=O)=O)cccc21 [Compound 174, N-(1-(3-(4-chlorophenyl)pentan-3-yl)-1H-indol-4-yl)methanesulfonamide]	100 to 500 nM
CCC(c1ccc(Cl)cc1)(n1ncc2c(NS(=O)(=O)NC)cccc21)C(C)(C)O (stereo not drawn) [Compound 94]	< 100 nM
CCC(c1ccc(Cl)cc1)(c1nnc(-c2ccccc2)o1)n1ccc2c(NS(C)(=O)=O)cccc21 (stereo not drawn) [Compound 70, N-{1-[1-(4-chlorophenyl)-1-(5-phenyl-1,3,4-oxadiazol-2-yl)propyl]-1H-indol-4-yl}methanesulfonamide]	500 to 5000 nM
CCC(C(=O)NCCc1ccccc1)(c1ccc(Cl)cc1)n1ccc2c(NS(C)(=O)=O)cccc21 (stereo not drawn) [Compound 50, 2-(4-chlorophenyl)-2-{4-[(methylsulfonyl)amino]-1H-indol-1-yl}-N-(2-phenylethyl)butanamide]	500 to 5000 nM
CCC(c1ccc(Cl)cc1)(c1nnc(-c2ccc(OC)cc2)o1)n1ccc2c(NS(C)(=O)=O)cccc21 (stereo not drawn) [Compound 74, N-(1-{1-(4-chlorophenyl)-1-[5-(4-methoxyphenyl)-1,3,4-oxadiazol-2-yl]propyl}-1H-indol-4-yl)methanesulfonamide]	100 to 500 nM
CCC(CO)(c1ccc(Cl)cc1Cl)n1ccc2c(NS(C)(=O)=O)cccc21 (stereo not drawn) [Compound 87, N-(1-(2-(2,4-dichlorophenyl)-1-hydroxybutan-2-yl)-1H-indol-4-yl)methane sulfonamide]	100 to 500 nM
CCC(c1ccc(Cl)cc1)(C(C)O)n1ccc2c(NS(C)(=O)=O)cccc21 (single isomer, unassigned) [Compound 108, N-(1-(3-(4-chlorophenyl)-2-hydroxypentan-3-yl)-1H-indol-4-yl)methanesulfonamide]	< 100 nM
